Assay results reported in article PMC10874388, “Cyclic peptides discriminate BCL-2 and its clinical mutants from BCL-XL by engaging a single-residue discrepancy” (Nature Communications, 2024).
Starred links: 1 amine or outer side, 2 acyl side, 3 side chain; linkers in the order of their positions; H or OH if unused. Positions of bridges follow the written chain, without caps; N, C: chain ends. Residues, ends and D or L forms follow the SMILES beside them. X1 = O=C(C[*:2])NCCNC(=O)c1ccc(C2=N[C@H](C(=O)[*:1])CS2)cc1

Columns and labels:
BCL-XL = molecular target: T1, BCL-XL (Homo sapiens, UniProt Q07817, DEL27-81); experiment: SPR binding assay, BCL-XL; conditions: affinity fitting, mean ± SD of three independent experiments, 25 °C
T1 construct: human BCL-XL (residues 1–210, with 27–81 and 210–233 removed); vector-borne tag of pET-22b (Ni-NTA purification implies a His tag); made in house; host or cells: E. coli BL21 (DE3)
Description: (§1) The DNA fragments encoding human BCL-XL ([…], with […] removed), BCL-w (residues 6–152), MCL-1 (residues 152–308) and BFL-1 (residues 1–151) as previously reported[18] were cloned into a pET-22b vector (Invitrogen), respectively. A chimeric human BCL-2 (including residues 1–50 and 92–207) was constructed, by removing the internal long loop (residues 51–91) and replacing its residues 35–50 with residues 33–48 of BCL-XL to solubilize the protein[14], and then it was cloned into a pET28a-Sumo vector (Invitrogen). All BCL-2 mutants (G101V, F104L, Y103D, D111A) were generated by mutagenic PCR, according to the QuikChange (Stratagene) protocol.
(§2) SPR assays were performed using a Biacore T200 instrument in running buffer consisting 10 mM PBS, 50 μM EDTA and 0.05% Tween-20 at 25 °C. Biotinylated proteins were immobilized on a CAP sensor chip (Cytiva, 28920234). […] The binding affinities were quantified by the Biacore evaluation software using 1:1 binding model. The reproducibility of the assays was confirmed by performing replicate determinations.

BCL-2-D111A = molecular target: T2, BCL-2-D111A (Homo sapiens, UniProt P10415, D111A/DEL35-91/INS34DVEENRTEAPEGTESE); experiment: SPR binding assay, BCL-2 D111A mutant
T2 construct: A chimeric human BCL-2 (including residues 1–50 and 92–207) was constructed; SUMO (pET28a-Sumo vector); made in house; host or cells: E. coli BL21 (DE3)

BCL-2-G101V = molecular target: T3, BCL-2-G101V (Homo sapiens, UniProt P10415, DEL35-91/G101V/INS34DVEENRTEAPEGTESE); experiment: SPR binding assay, BCL-2 G101V mutant; conditions: affinity fitting, mean ± SD of three independent experiments
T3 construct: A chimeric human BCL-2 (including residues 1–50 and 92–207) was constructed; SUMO (pET28a-Sumo vector); made in house; host or cells: E. coli BL21 (DE3)
Description: as §1, §2

BCL-2-D103Y = molecular target: T4, BCL-2-D103Y (Homo sapiens, UniProt P10415, D103Y/DEL35-91/INS34DVEENRTEAPEGTESE); experiment: SPR binding assay, BCL-2 D103Y mutant; conditions: affinity fitting, mean ± SD of three independent experiments
T4 construct: A chimeric human BCL-2 (including residues 1–50 and 92–207) was constructed; SUMO (pET28a-Sumo vector); made in house; host or cells: E. coli BL21 (DE3)
Description: as §1, §2

BCL-2-F104L = molecular target: T5, BCL-2-F104L (Homo sapiens, UniProt P10415, DEL35-91/F104L/INS34DVEENRTEAPEGTESE); experiment: SPR binding assay, BCL-2 F104L mutant; conditions: affinity fitting, mean ± SD of three independent experiments
T5 construct: A chimeric human BCL-2 (including residues 1–50 and 92–207) was constructed; SUMO (pET28a-Sumo vector); made in house; host or cells: E. coli BL21 (DE3)
Description: as §1, §2

BCL-w = molecular target: T6, BCL-w (Homo sapiens, UniProt Q92843); experiment: SPR binding assay, BCL-w; conditions: affinity fitting, mean ± SD of three independent experiments
T6 construct: BCL-w (residues 6–152); vector-borne tag of pET-22b (Ni-NTA purification implies a His tag); made in house; host or cells: E. coli BL21 (DE3)
T6 sequence (Q92843 6-152): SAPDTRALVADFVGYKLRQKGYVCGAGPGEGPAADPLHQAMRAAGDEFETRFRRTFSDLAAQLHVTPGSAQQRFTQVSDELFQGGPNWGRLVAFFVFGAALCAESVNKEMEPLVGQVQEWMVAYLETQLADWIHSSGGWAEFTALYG
Description: as §1, §2

MCL-1 = MCL-1 (Homo sapiens, UniProt Q07820); experiment: SPR binding assay, MCL-1; conditions: NB = no binding
Chain of MCL-1 (Q07820 152-308): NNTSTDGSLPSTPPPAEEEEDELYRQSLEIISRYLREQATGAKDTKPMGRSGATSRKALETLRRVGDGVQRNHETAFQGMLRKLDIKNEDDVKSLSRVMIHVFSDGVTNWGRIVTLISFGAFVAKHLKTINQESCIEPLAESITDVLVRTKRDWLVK
Description: as §1, §2

BFL-1 = molecular target: T7, BFL-1 (Homo sapiens, UniProt Q16548); experiment: SPR binding assay, BFL-1; conditions: NB = no binding
T7 construct: BFL-1 (residues 1–151); vector-borne tag of pET-22b (Ni-NTA purification implies a His tag); made in house; host or cells: E. coli BL21 (DE3)
T7 sequence (Q16548 1-151): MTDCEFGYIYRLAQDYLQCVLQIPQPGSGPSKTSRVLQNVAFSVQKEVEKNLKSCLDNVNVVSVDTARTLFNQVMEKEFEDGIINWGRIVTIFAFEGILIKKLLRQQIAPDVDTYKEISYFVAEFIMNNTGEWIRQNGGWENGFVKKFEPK
Description: as §1, §2

For `C[C@@H]1NC(=O)[C@@H]2CCCN2C(=O)[C@@H]2CSC(=N2)c2ccc(cc2)C(=O)NCCNC(=O)CSC[C@@H](C(N)=O)NC(=O)[C@H](CCC(=O)O)NC(=O)[C@H](Cc2ccc(O)cc2)NC(=O)[C@H](CC(=O)O)NC(=O)[C@H](Cc2c[nH]c3ccccc23)NC(=O)CNC(=O)[C@H](Cc2ccc(O)cc2)NC(=O)[C@H](CCCNC(=N)N)NC1=O` [cp1] (PARYGWDYEC-NH2; linker N-10 via X1), the Kd (BCL-XL) was over 12100 nM, the Kd (BCL-2-D111A) was 5340 ± 1000 nM and the Kd (BCL-2-G101V) was 1000 ± 130 nM. For the same compound, the Kd (BCL-2-D103Y) was 360 ± 30 nM, the Kd (BCL-2-F104L) was 1620 ± 360 nM and the Kd (BCL-w) was 1980 ± 390 nM. It also gave a Kd (MCL-1) of over 12800 nM and a Kd (BFL-1) of over 12800 nM.
